Assay results taken from patent US20240327463A1, “ANTIBACTERIAL PRODUCTS” (priority 2017, published 2024).
Values after ≈ are worked out from the molar mass of the structure shown. Bridge positions count the residues as written; N and C are the ends. Square brackets hold non-standard residues; d marks the D form. Peptide text beside a SMILES is read from it. dNMeF = CN[C@H](Cc1ccccc1)C(=O)O; Nva = CCC[C@H](N)C(=O)O

Columns and labels:
MRSA ATCC 33591 = details: for MIC (MRSA): ATCC 33591
Experimental: (§1) For MIC testing all peptides were dissolved in DMSO (according to the method of L. L. Ling, et al., Nature 2015, 517, 455-459). Bacteria were grown on Mueller Hinton broth (oxoid). All incubations were at 37° C. Dilutions were carried out using Mueller Hinton. 100 μl of autoclaved Mueller Hinton broth was added to wells 2-12 on a 96-well plate. 200 μl of the peptide was added to well one at a concentration of 512 μg/ml. 100 μl of peptide in well one was taken up and pipetted into well two. The mixture was then mixed via pipetting before 100 μl was taken up and pipetted into well three. This process was repeated up to well 11. […] This was repeated three times. The 96-well plates were then incubated for 24 hours. The MIC was determined to be the lowest concentration at which there was no growth visible.

MRSA ATCC 700699 = assay: microbe, parasite or virus in culture; details: ATCC 700699
Experimental: as §1

MRSA DM21455 (eye) = assay: microbe, parasite or virus in culture; details: DM21455 (eye)
Experimental: as §1

VRE ATCC 700802 = assay: microbe, parasite or virus in culture; details: ATCC 700802
Experimental: as §1

[1] = test system: Staphylococcus aureus ATCC 29213; assay: microbe, parasite or virus in culture; details: ATCC 29213
Experimental: as §1

VRE ATCC 29212 = assay: microbe, parasite or virus in culture; details: ATCC 29212
Experimental: as §1

MRSA DR 42412 (sputum) = assay: microbe, parasite or virus in culture; details: DR 42412 (sputum)
Experimental: as §1

MRSA 1003 = type: cell-based, Staphylococcus aureus
Experimental: (§2) Bacteria were grown on Mueller Hinton broth (oxoid). All incubations were at 37° C. Dilutions were carried out using Mueller Hinton. […] This process was repeated up to well 11. […] This was repeated three times. […] Results are tabulated in the Examples.

VRE 1004 = type: cell-based, Enterococcus faecalis
Experimental: as §2

VRE 1002 = type: cell-based, Enterococcus faecalis
Experimental: as §2

VRE 1008 = type: cell-based, Enterococcus faecalis
Experimental: as §2

VRE 1001 = type: cell-based, Enterococcus faecalis
Experimental: as §2

[2] = test system: Staphylococcus saprophyticus ATCC BAA 750; type: cell-based; details: ATCC BAA 750
Experimental: as §2

[3] = test system: Staphylococcus saprophyticus ATCC 49453; type: cell-based; details: ATCC 49453
Experimental: as §2

[4] = test system: Staphylococcus saprophyticus ATCC 15305; type: cell-based; details: ATCC 15305
Experimental: as §2

SE12228 = type: cell-based
Experimental: as §2

[5] = test system: Staphylococcus saprophyticus ATCC 49907; type: cell-based; details: ATCC 49907
Experimental: as §2

[6] = test system: Bacillus Subtilis ATCC 6633; type: cell-based
Experimental: as §2

[7] = test system: Bacillus Cereus ATCC 11788; type: cell-based
Experimental: as §2

What does the source list for `CC[C@@H](C)[C@@H](NC(=O)[C@@H](CCC(N)=O)NC(=O)[C@H](CCCNC(=N)N)NC(=O)[C@@H](NC(=O)[C@@H](Cc1ccccc1)NC)[C@@H](C)CC)C(=O)N[C@H](C(=O)N[C@@H](CO)C(=O)N[C@H]1C(=O)N[C@@H](C)C(=O)N[C@@H](CC(C)C)C(=O)N[C@@H]([C@@H](C)CC)C(=O)O[C@H]1C)[C@@H](C)CC` [Compound 25, Arg3-Leu10-teixobactin] (H-[dNMeF]IR[dQ][dI]IS[dT]ALI; ester 8-C)?
MIC (MRSA) (MRSA ATCC 33591): 0.125 µg/mL (≈ 0.0984 µM); MIC (MRSA ATCC 700699): 0.5 µg/mL (≈ 0.394 µM); MIC (MRSA DM21455 (eye)): 0.03125 µg/mL (≈ 0.0246 µM); MIC (VRE ATCC 700802): 0.5 µg/mL (≈ 0.394 µM); MIC [1]: 0.25 µg/mL (≈ 0.197 µM); MIC (VRE ATCC 29212): 0.5 µg/mL (≈ 0.394 µM); MIC (MRSA DR 42412 (sputum)): <0.0625 µg/mL; MIC (MRSA 1003): <0.0625 µg/mL; MIC (VRE 1004): <0.0625 µg/mL; MIC (VRE 1002): 0.5 µg/mL (≈ 0.394 µM); MIC (VRE 1008): 0.125 µg/mL (≈ 0.0984 µM); MIC (VRE 1001): 0.25 µg/mL (≈ 0.197 µM); MIC [2]: <0.0625 µg/mL; MIC [3]: <0.0625 µg/mL; MIC [4]: <0.0625 µg/mL; MIC (SE12228): <0.0625 µg/mL; MIC [5]: <0.0625 µg/mL; MIC [6]: <0.0625 µg/mL; MIC [7]: <0.0625 µg/mL

How did the “MIC against MRSA ATCC 33591” value (MRSA ATCC 33591; MRSA ATCC 33591) turn out when `CC[C@@H](C)[C@@H](NC(=O)[C@@H](CCC(N)=O)NC(=O)[C@H](CCCNC(=N)N)NC(=O)[C@@H](NC(=O)[C@@H](Cc1ccccc1)NC)[C@@H](C)CC)C(=O)N[C@H](C(=O)N[C@@H](CO)C(=O)N[C@H]1C(=O)N[C@@H](CCCNC(=N)N)C(=O)N[C@@H](CC(C)C)C(=O)N[C@@H]([C@@H](C)CC)C(=O)O[C@H]1C)[C@@H](C)CC` [Compound 29, Arg3-Arg9-Leu10-teixobactin] (H-[dNMeF]IR[dQ][dI]IS[dT]RLI; ester 8-C) was run?
The value was 1 µg/mL (≈ 0.738 µM).

What about the MIC (MRSA ATCC 700699) of the same compound?
The MIC was 1 µg/mL (≈ 0.738 µM).

What about the MIC (MRSA DM21455 (eye)) of the same compound?
The MIC was 1 µg/mL (≈ 0.738 µM).

What about the MIC (VRE ATCC 700802) of the same compound?
The MIC was 1 µg/mL (≈ 0.738 µM).

What about the MIC [1] of the same compound?
The MIC was 1 µg/mL (≈ 0.738 µM).

And the MIC (VRE ATCC 29212)?
Its MIC is 1 µg/mL (≈ 0.738 µM).

And the MIC (MRSA DR 42412 (sputum))?
Its MIC is 0.25 µg/mL (≈ 0.184 µM).

And the MIC (MRSA 1003)?
The MIC was 2 µg/mL (≈ 1.48 µM).

And the MIC (VRE 1004)?
The MIC was 0.5 µg/mL (≈ 0.369 µM).

What about the MIC (VRE 1002) of the same compound?
The MIC was 1 µg/mL (≈ 0.738 µM).

What about the MIC (VRE 1008) of the same compound?
The MIC was 0.5 µg/mL (≈ 0.369 µM).

And the MIC (VRE 1001)?
Its MIC is 0.5 µg/mL (≈ 0.369 µM).

What about the MIC [2] of the same compound?
The MIC was less than 0.0625 µg/mL.

What about the MIC [3] of the same compound?
Its MIC is less than 0.0625 µg/mL.

What about the MIC [4] of the same compound?
Its MIC is less than 0.0625 µg/mL.

What about the MIC (SE12228) of the same compound?
Its MIC is less than 0.0625 µg/mL.

What about the MIC [5] of the same compound?
The MIC was less than 0.0625 µg/mL.

What about the MIC [6] of the same compound?
Its MIC is less than 0.0625 µg/mL.

What about the MIC [7] of the same compound?
Its MIC is 1 µg/mL (≈ 0.738 µM).

With `CCC[C@@H]1NC(=O)[C@H](CCCNC(=N)N)NC(=O)[C@H](NC(=O)[C@H](CO)NC(=O)[C@@H](NC(=O)[C@H](NC(=O)[C@@H](CCC(N)=O)NC(=O)[C@H](CO)NC(=O)[C@@H](NC(=O)[C@@H](Cc2ccccc2)NC)[C@@H](C)CC)[C@H](C)CC)[C@@H](C)CC)[C@H](C)OC(=O)[C@H]([C@@H](C)CC)NC1=O` [Compound 47, Arg9-Nva10-teixobactin] (H-[dNMeF]IS[dQ][dI]IS[dT]R[Nva]I; ester 8-C) as the compound, how does the “MIC (MRSA)” value (MRSA ATCC 33591) read?
The value was 0.5 µg/mL (≈ 0.393 µM).

How did the “MIC (MRSA)” value (MRSA ATCC 33591) turn out when `CCC[C@@H]1NC(=O)[C@H](C)NC(=O)[C@H](NC(=O)[C@H](CO)NC(=O)[C@@H](NC(=O)[C@H](NC(=O)[C@@H](CCCNC(=N)N)NC(=O)[C@H](CCCNC(=N)N)NC(=O)[C@@H](NC(=O)[C@@H](Cc2ccccc2)NC)[C@@H](C)CC)[C@H](C)CC)[C@@H](C)CC)[C@H](C)OC(=O)[C@H]([C@@H](C)CC)NC1=O` [Compound 48, Arg3-D-Arg4-Nva10-teixobactin] (H-[dNMeF]IR[dR][dI]IS[dT]A[Nva]I; ester 8-C) was run?
Its value is greater than 64 µg/mL.

With `CCC[C@@H]1NC(=O)[C@H](CCCNC(=N)N)NC(=O)[C@H](NC(=O)[C@H](CO)NC(=O)[C@@H](NC(=O)[C@H](NC(=O)[C@@H](CCC(N)=O)NC(=O)[C@H](CCCNC(=N)N)NC(=O)[C@@H](NC(=O)[C@@H](Cc2ccccc2)NC)[C@@H](C)CC)[C@H](C)CC)[C@@H](C)CC)[C@H](C)OC(=O)[C@H]([C@@H](C)CC)NC1=O` [Compound 49, Arg3-Arg9-Nva10-teixobactin] (H-[dNMeF]IR[dQ][dI]IS[dT]R[Nva]I; ester 8-C) as the compound, how does the “MIC (MRSA)” value (MRSA ATCC 33591) read?
The value was 0.5 µg/mL (≈ 0.373 µM).

For `CCC[C@@H]1NC(=O)[C@H](CCCNC(=N)N)NC(=O)[C@H](NC(=O)[C@H](CO)NC(=O)[C@@H](NC(=O)[C@H](NC(=O)[C@@H](CCCNC(=N)N)NC(=O)[C@H](CO)NC(=O)[C@@H](NC(=O)[C@@H](Cc2ccccc2)NC)[C@@H](C)CC)[C@H](C)CC)[C@@H](C)CC)[C@H](C)OC(=O)[C@H]([C@@H](C)CC)NC1=O` [Compound 50, D-Arg4-Arg9-Nva10-teixobactin] (H-[dNMeF]IS[dR][dI]IS[dT]R[Nva]I; ester 8-C), which “MIC (MRSA)” value (MRSA ATCC 33591) is on record?
Its value is 0.5 µg/mL (≈ 0.384 µM).

Which “MIC (MRSA)” value (MRSA ATCC 33591) does the source give for `CCC[C@@H]1NC(=O)[C@H](CCCNC(=N)N)NC(=O)[C@H](NC(=O)[C@H](CO)NC(=O)[C@@H](NC(=O)[C@H](NC(=O)[C@@H](CCCNC(=N)N)NC(=O)[C@H](CCCNC(=N)N)NC(=O)[C@@H](NC(=O)[C@@H](Cc2ccccc2)NC)[C@@H](C)CC)[C@H](C)CC)[C@@H](C)CC)[C@H](C)OC(=O)[C@H]([C@@H](C)CC)NC1=O` [Compound 51, Arg3-D-Arg4-Arg9-Nva10-teixobactin] (H-[dNMeF]IR[dR][dI]IS[dT]R[Nva]I; ester 8-C) here?
Its value is 64 µg/mL (≈ 46.7 µM).

`CC[C@@H](C)[C@@H](NC(=O)[C@@H](CCCNC(=N)N)NC(=O)[C@H](CO)NC(=O)[C@@H](NC(=O)[C@@H](Cc1ccccc1)NC)[C@@H](C)CC)C(=O)N[C@H](C(=O)N[C@@H](CO)C(=O)N[C@H]1C(=O)N[C@@H](C)C(=O)N[C@@H](Cc2ccccc2)C(=O)N[C@@H]([C@@H](C)CC)C(=O)O[C@H]1C)[C@@H](C)CC` [Compound 52, D-Arg4-Phe10-teixobactin] was tested. Which “MIC (MRSA)” value (MRSA ATCC 33591) did it give?
The value was 2 µg/mL (≈ 1.58 µM).

`CC[C@@H](C)[C@@H](NC(=O)[C@@H](CCCNC(=N)N)NC(=O)[C@H](CO)NC(=O)[C@@H](NC(=O)[C@@H](Cc1ccccc1)NC)[C@@H](C)CC)C(=O)N[C@H](C(=O)N[C@@H](CO)C(=O)N[C@H]1C(=O)N[C@@H](C)C(=O)N[C@@H](C)C(=O)N[C@@H]([C@@H](C)CC)C(=O)O[C@H]1C)[C@@H](C)CC` [Compound 53, D-Arg4-Ala10-teixobactin] was tested. Which “MIC (MRSA)” value (MRSA ATCC 33591) did it give?
Its value is 4 µg/mL (≈ 3.37 µM).

Which results are given for `CCCCCCCCCC(=O)N[C@@H](Cc1c[nH]c2ccccc12)C(=O)N[C@H](CC(N)=O)C(=O)N[C@@H](CC(=O)O)C(=O)N[C@@H]1C(=O)NCC(=O)N[C@@H](CCCN)C(=O)N[C@@H](CC(=O)O)C(=O)N[C@H](C)C(=O)N[C@@H](CC(=O)O)C(=O)NCC(=O)N[C@H](CO)C(=O)N[C@@H]([C@H](C)CC(=O)O)C(=O)N[C@@H](CC(=O)c2ccccc2N)C(=O)O[C@@H]1C` [Daptomycin, reference compound]?
MIC (MRSA ATCC 700699): 0.25 µg/mL (≈ 0.154 µM); MIC (MRSA DM21455 (eye)): <0.0625 µg/mL; MIC (VRE ATCC 700802): 0.25 µg/mL (≈ 0.154 µM); MIC (VRE ATCC 29212): 0.25 µg/mL (≈ 0.154 µM); MIC (MRSA DR 42412 (sputum)): <0.0625 µg/mL
